Laboratory results from patent US12559506B2, “Indazole based compounds and associated methods of use” (Arvinas Operations, Inc., priority 2021, dated 2026).
Like-named read-outs stand apart in the source and are kept apart here.

Biological target: T1, LRRK2 (endogenous, HiBit tagged) (Homo sapiens, UniProt Q5S007)
T1 construct: endogenous in cells; host or cells: HEK293 cells with HiBit knock-in at the endogenous LRRK2 locus, stably expressing firefly luciferase
Test: Endogenous LRRK2 degradation assay, endogenous gene C-terminally HiBit-tagged in HEK293 cells (Nano-Glo Dual Luciferase)
Assay type: cell-based
From the text: Exemplary Assay for Testing LRRK2 Degradation Driven by Exemplary Hetero-Bifunctional Compounds Designed to Target LRRK2
The assay measures the degradation of LRRK2 in cells where the C-terminus (3′) of the endogenous gene has been tagged with a HiBit sequence in HEK293 cells. The cells also express firefly luciferase, expressed from a Cytomegalovirus promoter and introduced into the HiBit tagged cells and stably expressed. The Nano-Glo® Dual Luciferase Reporter Assay System (Promega™, Madison, WI) was utilized.
Day 1—Preparation of Compound and Assay Plates. Two sets of plates were prepared: a triplicate set for the HiBit assay in white 384-well plates and a triplicate set of plate in black 384-well plates for the Alamar Blue cell viability assay. Briefly, the growth media (DMEM+Glutamax-10% fetal bovine serum-1% Penicillin-Streptomicin) from two T128 flasks was aspirated from the flasks. Cells were washed with Dulbecco's Phosphate Buffered Saline (dPBS) and aspirated. Trypsin (3 mL per flask) was added and the flasks were incubated for 2-3 minutes.
Ten mL of OptiMEM-10% fetal bovine-1% penicillin-streptomycin (hereinafter, “OptiMEM media”) was added to the flask and the cells and transferred to a 50 mL conical tube. A cell count (25 ul of cell into Effendorf vial+25 ul of Trypan Blue Stain) was performed and the cell density adjusted to 15,000 cell/45 μl/well (3.33×10^5/mL) in OptiMEM media.
Fourty-five microliters of the cell suspension (15,000 cells) was aliquoted to each well of the white 384-well plate. The plates incubated at room temperature for 10 minutes before being placed in the 37° C.+5% CO2 incubator overnight
Day 2—Compound Treatment. Exemplary compounds were prepared at a 1 mM starting concentration and 1:3 serial dilution for 11 points CRC prepared and stored in the freezer. The Master Compound Plate was thawed overnight at room temperature. DMSO (20 μL) was added into column 24 of the Master Compound Plate for negative control and 20 μL of 300 μM of Compound 4 in column 23 as positive control.
Intermediate Compound Plate with 4% DMSO in OptiMEM Media. DMSO was added to warm OptiMEM media to achieve a 4% DMSO solution (approximately 50 mL/plate). One-hundred microliters of the OptiMEM-4% DMSO was aliquoted to each well of 384-Well Deep Well Microplates.
The Master Compound Plate and the Intermediate Compound Plate were spun down.
One microliter of compound from the Master Compound Plate was transferred into the Intermediate plate (a 1:100 dilution). The diluted mixture was mixed and 5 μL transferred into the assay plate (a 1:10 dilution) for the final starting concentration of 1 μM. The Treated Assay plates were incubated for 24 hours at 37° C.+5% CO2. The Master Compound Plate was sealed and store at room temperature for a second run that was performed within a week.
Day 3—HiBit Assay. Five microliters of Alamar Blue was added to each well of the black 384-well plates. The plates were incubated for 2 hours in the incubator (37° C.+5% CO2) and at room temperature for one hour. Fluorescence of each plate was read on a plated reader for the Alamar Blue viability assay.
One set of white assay plates was warmed to room temperature (45 minute).
The One Glo luciferase mixture was prepared. The media from white 384-well assay plates was aspirated. Twenty-five μL of the One Glo luciferase mixture was added to each well of the assay plates. The plates were incubated on the bench (room temperature) for 45 minutes, including 10 minutes of shaking at 700 rpm. The luminescence of each plate was read on a plate reader.
1:100 DLR substrate and 1:100 LgBiT Protein dilution were added to the Promega Stop and Glo buffer and mixed just before addition to assay plates. Twenty-five microliters of Stop and Glo mixture was added to each well. Assay plates incubated for at least 45 minutes, including 10 minutes of shaking at 700 rpm. The luminescence of each plate was read on a plate reader.
Analysis of LRRK2 HiBit Screening assays. […]

[1] = endogenous HiBit-tagged LRRK2 in HEK293 cells, 24 hours treatment, read-out: **Endogenous WT Dmax (%)
[2] = endogenous HiBit-tagged LRRK2 in HEK293 cells, 24 hours treatment, read-out: *Endogenous WT DC50
[3] = endogenous HiBit-tagged LRRK2 in HEK293 cells, 24 hours treatment, read-out: Endogenous WT DC50
[4] = endogenous HiBit-tagged LRRK2 in HEK293 cells, 24 hours treatment, read-out: Endogenous WT Dmax

T1 sequence (Q5S007 whole entry): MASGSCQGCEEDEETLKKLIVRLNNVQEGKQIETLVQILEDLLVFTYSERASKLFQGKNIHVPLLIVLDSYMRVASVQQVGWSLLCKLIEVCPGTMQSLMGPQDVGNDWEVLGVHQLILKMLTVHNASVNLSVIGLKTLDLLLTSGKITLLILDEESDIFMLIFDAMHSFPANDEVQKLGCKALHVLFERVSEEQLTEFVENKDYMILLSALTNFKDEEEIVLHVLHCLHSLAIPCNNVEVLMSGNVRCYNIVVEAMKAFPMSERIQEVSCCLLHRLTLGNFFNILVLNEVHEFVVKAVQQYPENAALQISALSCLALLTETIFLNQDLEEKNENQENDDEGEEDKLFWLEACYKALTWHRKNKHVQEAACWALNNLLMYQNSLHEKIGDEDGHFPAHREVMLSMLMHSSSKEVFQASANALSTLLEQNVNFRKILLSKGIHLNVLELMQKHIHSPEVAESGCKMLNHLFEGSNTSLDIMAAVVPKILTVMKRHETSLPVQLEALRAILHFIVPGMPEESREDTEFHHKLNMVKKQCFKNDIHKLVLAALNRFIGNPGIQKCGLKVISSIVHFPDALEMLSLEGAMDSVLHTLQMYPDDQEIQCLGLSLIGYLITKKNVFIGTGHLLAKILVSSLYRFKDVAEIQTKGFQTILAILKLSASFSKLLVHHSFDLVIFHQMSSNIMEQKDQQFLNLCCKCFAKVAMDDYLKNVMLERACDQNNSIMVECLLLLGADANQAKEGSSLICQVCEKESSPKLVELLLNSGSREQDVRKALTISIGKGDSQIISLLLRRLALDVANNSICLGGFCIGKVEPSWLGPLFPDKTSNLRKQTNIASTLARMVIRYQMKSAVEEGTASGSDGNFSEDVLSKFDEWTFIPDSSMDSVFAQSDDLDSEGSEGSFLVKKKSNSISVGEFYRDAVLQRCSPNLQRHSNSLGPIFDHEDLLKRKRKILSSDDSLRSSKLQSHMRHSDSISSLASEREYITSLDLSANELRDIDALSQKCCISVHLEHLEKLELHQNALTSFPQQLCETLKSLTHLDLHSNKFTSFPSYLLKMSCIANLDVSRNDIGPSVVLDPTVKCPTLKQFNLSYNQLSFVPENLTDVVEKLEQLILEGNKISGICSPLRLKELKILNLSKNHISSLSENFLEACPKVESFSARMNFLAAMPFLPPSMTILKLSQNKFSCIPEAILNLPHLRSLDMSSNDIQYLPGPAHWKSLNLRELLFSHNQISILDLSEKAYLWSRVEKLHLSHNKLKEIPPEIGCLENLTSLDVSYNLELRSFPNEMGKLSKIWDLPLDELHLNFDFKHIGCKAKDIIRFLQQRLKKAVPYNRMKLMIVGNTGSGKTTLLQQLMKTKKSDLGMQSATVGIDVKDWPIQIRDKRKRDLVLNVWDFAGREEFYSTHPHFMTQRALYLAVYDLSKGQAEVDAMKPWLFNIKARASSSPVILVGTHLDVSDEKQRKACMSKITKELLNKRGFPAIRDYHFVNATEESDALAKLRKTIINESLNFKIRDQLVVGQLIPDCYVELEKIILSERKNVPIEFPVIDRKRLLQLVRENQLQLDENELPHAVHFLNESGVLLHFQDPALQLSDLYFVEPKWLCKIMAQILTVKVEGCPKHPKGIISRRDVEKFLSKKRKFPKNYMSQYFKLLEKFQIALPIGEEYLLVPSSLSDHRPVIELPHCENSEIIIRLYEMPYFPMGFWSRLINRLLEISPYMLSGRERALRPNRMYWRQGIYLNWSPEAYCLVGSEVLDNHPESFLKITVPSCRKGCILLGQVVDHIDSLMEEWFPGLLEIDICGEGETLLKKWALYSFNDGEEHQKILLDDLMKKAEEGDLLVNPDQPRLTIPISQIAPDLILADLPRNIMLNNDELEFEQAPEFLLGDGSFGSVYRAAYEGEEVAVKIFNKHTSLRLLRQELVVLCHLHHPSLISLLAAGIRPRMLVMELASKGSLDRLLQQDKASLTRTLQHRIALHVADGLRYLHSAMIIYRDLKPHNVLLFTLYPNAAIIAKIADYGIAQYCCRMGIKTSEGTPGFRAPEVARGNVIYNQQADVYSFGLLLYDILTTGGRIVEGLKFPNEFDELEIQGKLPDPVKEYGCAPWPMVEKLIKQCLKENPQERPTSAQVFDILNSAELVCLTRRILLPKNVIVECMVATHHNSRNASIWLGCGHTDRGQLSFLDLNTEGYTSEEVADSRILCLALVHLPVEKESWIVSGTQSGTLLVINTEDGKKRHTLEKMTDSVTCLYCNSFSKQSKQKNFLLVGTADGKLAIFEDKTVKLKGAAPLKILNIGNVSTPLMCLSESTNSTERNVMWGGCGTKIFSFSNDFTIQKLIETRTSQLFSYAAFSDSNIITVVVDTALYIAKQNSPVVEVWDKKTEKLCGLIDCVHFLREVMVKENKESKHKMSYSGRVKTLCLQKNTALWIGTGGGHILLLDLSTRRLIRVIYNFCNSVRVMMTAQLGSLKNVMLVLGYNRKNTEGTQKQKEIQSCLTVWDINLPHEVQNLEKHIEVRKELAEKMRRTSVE

Dmax [1] [%] | DC50 [2] [nM] | Structure (SMILES) | also measured
50 to 70 | < 10 | CC1(Oc2ccc3[nH]nc(-c4cc(N5CCC(CN6CC[C@H](OC7CCN(c8ccc9c(c8F)CN(C8CCC(=O)NC8=O)C9=O)CC7)CC6(C)C)CC5)ncn4)c3c2)CC1 (stereo partly drawn) [Compound 313, 3-[5-(4-{[(4S)-2,2-dimethyl-1-[(1-{6-[5-(1-methylcyclopropoxy)-1H-indazol-3-yl]pyrimidin-4-yl}piperidin-4-yl)methyl]piperidin-4-yl]oxy}piperidin-1-yl)-4-fluoro-1-oxo-2,3-dihydro-1H-isoindol-2-yl]piperidine-2,6-dione] | 
≥ 70 | < 10 | CC1(Oc2ccc3n[nH]c(-c4cc(N5CCC(O[C@H]6C[C@H](N7CCC(c8ccc9c(c8F)CN(C8CCC(=O)NC8=O)C9=O)CC7)C6)CC5)ncn4)c3c2)CC1 (stereo partly drawn) [Compound 290, 3-(4-fluoro-1-oxo-5-{1-[(1r,3r)-3-[(1-{6-[5-(1-methylcyclopropoxy)-2H-indazol-3-yl]pyrimidin-4-yl}piperidin-4-yl)oxy]cyclobutyl]piperidin-4-yl}-2,3-dihydro-1H-isoindol-2-yl)piperidine-2,6-dione] | 
50 to 70 | < 10 | COc1c(N2CCC(O[C@@H]3CCN(CC4CCN(c5cc(-c6n[nH]c7ccc(OC8(C)CC8)cc67)ncn5)CC4)C(C)(C)C3)CC2)ccc2c1CN(C1CCC(=O)NC1=O)C2=O (stereo partly drawn) [Compound 322, 3-[5-(4-{[(4R)-2,2-dimethyl-1-[(1-{6-[5-(1-methylcyclopropoxy)-1H-indazol-3-yl]pyrimidin-4-yl}piperidin-4-yl)methyl]piperidin-4-yl]oxy}piperidin-1-yl)-4-methoxy-1-oxo-2,3-dihydro-1H-isoindol-2-yl]piperidine-2,6-dione] | 
50 to 70 | < 10 | CC1(Oc2cc3c(-c4cc(N5CCC(O[C@H]6CC[C@H](CN7CCN(c8ccc9c(c8F)CN(C8CCC(=O)NC8=O)C9=O)CC7)CC6)CC5)ncn4)n[nH]c3cc2F)CC1 (stereo partly drawn) [Compound 259, 3-[4-fluoro-1-oxo-5-(4-{[(1r,4r)-4-[(1-{6-[6-fluoro-5-(1-methylcyclopropoxy)-1H-indazol-3-yl]pyrimidin-4-yl}piperidin-4-yl)oxy]cyclohexyl]methyl}piperazin-1-yl)-2,3-dihydro-1H-isoindol-2-yl]piperidine-2,6-dione] | 
 |  | CC1(Oc2ccc3n[nH]c(-c4cc(N5CCC(CN6CCN(CC7(F)CCN(c8ccc9c(c8F)CN(C8CCC(=O)NC8=O)C9=O)CC7)CC6)CC5)ncn4)c3c2)CC1 (stereo not drawn) [Compound 209, 3-[4-fluoro-5-[4-fluoro-4-[[4-[[1-[6-[5-(1-methylcyclopropoxy)-2H-indazol-3-yl]pyrimidin-4-yl]-4-piperidyl]methyl]piperazin-1-yl]methyl]-1-piperidyl]-1-oxo-isoindolin-2-yl]piperidine-2,6-dione] | DC50 [3]: < 10 nM; Dmax [4]: ≥ 70%
 |  | COc1c(N2CCC(O[C@H]3CC[C@H](CN4CCN(c5cc(-c6n[nH]c7ccc(OC8(C)CC8)cc67)ncn5)C[C@@H]4C)CC3)CC2)ccc2c1CN(C1CCC(=O)NC1=O)C2=O (stereo partly drawn) [Compound 366, 3-[4-methoxy-1-oxo-5-(4-{[(1r,4r)-4-{[(2S)-2-methyl-4-{6-[5-(1-methylcyclopropoxy)-1H-indazol-3-yl]pyrimidin-4-yl}piperazin-1-yl]methyl}cyclohexyl]oxy}piperidin-1-yl)-2,3-dihydro-1H-isoindol-2-yl]piperidine-2,6-dione] | DC50 [3]: < 10 nM; Dmax [4]: 50 to 70%
 |  | COc1c(N2CCC(O[C@H]3CC[C@H](OC4CCN(c5cc(-c6n[nH]c7cnc(OC8(C)CC8)cc67)ncn5)CC4)CC3)CC2)ccc2c1CN(C1CCC(=O)NC1=O)C2=O (stereo partly drawn) [Compound 380, 3-[4-methoxy-1-oxo-5-(4-{[(1r,4r)-4-[(1-{6-[5-(1-methylcyclopropoxy)-1H-pyrazolo[3,4-c]pyridin-3-yl]pyrimidin-4-yl}piperidin-4-yl)oxy]cyclohexyl]oxy}piperidin-1-yl)-2,3-dihydro-1H-isoindol-2-yl]piperidine-2,6-dione] | DC50 [3]: < 10 nM; Dmax [4]: 50 to 70%
 |  | CC1(Oc2ccc3[nH]nc(-c4cc(N5CCC(CN6CCC(F)(CN7CCN(c8cc9c(cc8F)C(=O)N(C8CCC(=O)NC8=O)C9)CC7)CC6)CC5)ncn4)c3c2)CC1 (stereo not drawn) [Compound 188, 3-[6-fluoro-5-[4-[[4-fluoro-1-[[1-[6-[5-(1-methylcyclopropoxy)-1H-indazol-3-yl]pyrimidin-4-yl]-4-piperidyl]methyl]-4-piperidyl]methyl]piperazin-1-yl]-1-oxo-isoindolin-2-yl]piperidine-2,6-dione] | Dmax (endogenous HiBit-tagged LRRK2, HEK293 cells, 24 hours, read-out: **Endogenous WT Dmax (%)): ≥ 70%; DC50 (endogenous HiBit-tagged LRRK2, HEK293 cells, 24 hours, read-out: *Endogenous WT DC50): < 10 nM
50 to 70 | < 10 | CC1(Oc2ccc3n[nH]c(-c4cc(N5CCN(C[C@H]6C[C@H](CN7CCN(c8ccc9c(c8F)CN(C8CCC(=O)NC8=O)C9=O)CC7)C6)CC5)ncn4)c3c2)CC1 (stereo partly drawn) [Compound 334, 3-[4-fluoro-1-oxo-5-(4-{[(1r,3r)-3-[(4-{6-[5-(1-methylcyclopropoxy)-2H-indazol-3-yl]pyrimidin-4-yl}piperazin-1-yl)methyl]cyclobutyl]methyl}piperazin-1-yl)-2,3-dihydro-1H-isoindol-2-yl]piperidine-2,6-dione] | 
50 to 70 | < 10 | COc1c(N2CCC(N3CC(F)(CC4CCN(c5cc(-c6[nH]nc7ccc(OC8(C)CC8)cc67)ncn5)CC4)C3)CC2)ccc2c1CN(C1CCC(=O)NC1=O)C2=O (stereo not drawn) [Compound 345, 3-(5-(4-(3-fluoro-3-((1-(6-(5-(1-methylcyclopropoxy)-2H-indazol-3-yl)pyrimidin-4-yl)piperidin-4-yl)methyl)azetidin-1-yl)piperidin-1-yl)-4-methoxy-1-oxoisoindolin-2-yl)piperidine-2,6-dione] | 
50 to 70 | < 10 | CC1(Oc2cc3c(-c4cc(N5CCN(C[C@H]6CC[C@H](OC7CCN(c8ccc9c(c8F)CN(C8CCC(=O)NC8=O)C9=O)CC7)CC6)CC5)ncn4)n[nH]c3cn2)CC1 (stereo partly drawn) [Compound 258, 3-[4-fluoro-1-oxo-5-(4-{[(1r,4r)-4-[(4-{6-[5-(1-methylcyclopropoxy)-1H-pyrazolo[3,4-c]pyridin-3-yl]pyrimidin-4-yl}piperazin-1-yl)methyl]cyclohexyl]oxy}piperidin-1-yl)-2,3-dihydro-1H-isoindol-2-yl]piperidine-2,6-dione] | 
≥ 70 | < 10 | COc1c(N2CCC(CN3[C@H](C)CN(CC4CCN(c5cc(-c6n[nH]c7ccc(OC8(C)CC8)cc67)ncn5)CC4)C[C@@H]3C)CC2)ccc2c1CN(C1CCC(=O)NC1=O)C2=O (stereo partly drawn) [Compound 288, 3-[5-(4-{[(2R,6S)-2,6-dimethyl-4-[(1-{6-[5-(1-methylcyclopropoxy)-1H-indazol-3-yl]pyrimidin-4-yl}piperidin-4-yl)methyl]piperazin-1-yl]methyl}piperidin-1-yl)-4-methoxy-1-oxo-2,3-dihydro-1H-isoindol-2-yl]piperidine-2,6-dione] | 
